From US9701655B2, “Functionalised benzopyran compounds and use thereof” (NOVOGEN LIMITED, priority 2014, dated 2017) come the findings set out here.

Common to all, as to assay type: cell-based
One assay concerns A2780. Description: Proliferation of somatic cancer cells (cell-titre luminescence), A2780. To be noted: Homo sapiens; Ovarian A2780, 72 hrs. The procedure:
(§1) The ability of selected compounds to inhibit the proliferation of cancer cells representative of melanoma, non-small cell lung cancer, colorectal cancer, breast cancer (Estogen Receptor negative (ER−ve, TNBC−R−ve, Progesterone Receptor negative and negative for EGFR amplification), prostate cancer, liver cancer, ovarian cancer, pancreatic cancer and brain cancer was studied. A pre-determined number of cells as calculated from cell growth assays for each of the cell lines employed were seeded into their respective culture mediums (using ATCC culture parameters—http://wwvv.atcc.org) and cultured for 24 hrs at 37° C. and 5% CO2 in 96-well culture plates. Once attached, each cell line was then exposed to various concentrations of each respective analogue (30, 3, 0.3 and 0.03 μM), cultured for a further 72 hrs and exposed to cell-titre luminescent reagent (100μ/well) for a further 30 mins). Luminescence was captured using an EnVision multilabel reader and the data for each analogue concentration compared against control. Semi-log plots of Percent of Control versus concentration were prepared and IC50 determined using linear regression analysis. In Table 6, compounds Comp 1, Comp 2 and Comp 3 are comparative compounds having the following structures: […]

In the next assay the test system is U87-MG. Description: Proliferation of somatic cancer cells (cell-titre luminescence), U87-MG. To be noted: Homo sapiens, U-87 MG; Brain U87-MG, 72 hrs. As for the experimental part: as §1
The test system of a further assay is MDA-MB-231. Description: Proliferation of somatic cancer cells (cell-titre luminescence), MDA-MB-231. To be noted: Homo sapiens, MDA-MB-231, 72 h, Breast MDA-MB-231, 72 hrs. As for the experimental part: as §1
Another assay concerns MiaPaCa-2. The assay is described as follows: Proliferation of somatic cancer cells (cell-titre luminescence), MiaPaCa-2. To be noted: Homo sapiens, MIA PaCa-2; Pancreatic MiaPaCa-2, 72 hrs. The procedure:
as §1

A further assay deals with PC3. Description: Proliferation of somatic cancer cells (cell-titre luminescence), PC3. To be noted: Homo sapiens, PC-3, 72 h, Prostate PC3, 72 hrs. The procedure: as §1
The test system of another assay is A549. Description: Proliferation of somatic cancer cells (cell-titre luminescence), A549. To be noted: Homo sapiens, A549, 72 h, Lung (NSCLC) A549, 72 hrs. As for the experimental part: as §1
A further assay deals with SK-Mel-28. The assay is described as follows: Proliferation of somatic cancer cells (cell-titre luminescence), SK-Mel-28. To be noted: Homo sapiens; Melanoma SK-Mel-28, 72 hrs. The procedure: as §1
A further assay has as its system DU145. Description: Proliferation of somatic cancer cells (cell-titre luminescence), DU145. To be noted: Homo sapiens, DU-145, 72 h, Prostate DU145, 72 hrs. The procedure:
as §1

As to `CCc1cc2c(c(C)c1O)OCC(c1cc(OC)c(O)c(OC)c1)C2c1ccc(O)c(F)c1` (centres unmarked) [Compound 36, 4-(3-fluoro-4-hydroxyphenyl)-3-(4-hydroxy-3,5-dimethoxyphenyl)-6-ethyl-8-methylchroman-7-ol], the IC50 with A2780 is 140 nM; in the assay with U87-MG, 220 nM; with MDA-MB-231, 200 nM; in the assay with MiaPaCa-2 it was 170 nM; with PC3 it was 180 nM; with A549, 240 nM. Half-maximal inhibition with SK-Mel-28 (IC50) required 160 nM.
As for `CCc1cc2c(c(C)c1O)OCC(c1cc(OC)c(O)c(OC)c1)C2c1ccc(O)c(C)c1` (centres unmarked) [Compound 37, 4-(3-methyl-4-hydroxyphenyl)-3-(4-hydroxy-3,5-dimethoxyphenyl)-6-ethyl-8-methylchroman-7-ol], the IC50 in the assay with A2780 is 320 nM; with U87-MG, 380 nM; in the assay on MDA-MB-231 it was 920 nM; with MiaPaCa-2, 520 nM; in the assay with DU145, 440 nM; in the assay with PC3 it was 530 nM. For the same molecule, the IC50 turned out to be 400 nM in the assay with A549 and 210 nM with SK-Mel-28.
On to `CCc1cc2c(c(C)c1O)OCC(c1cc(OC)c(O)c(OC)c1)=C2c1ccc(O)cc1C` [Compound 39, 4-(2-methyl-4-hydroxyphenyl)-6-ethyl-8-methyl-3-(4-hydroxy-3,5-dimethoxyphenyl)-2H-chromen-7-ol], for which the IC50 came out at 610 nM with A2780; 490 nM in the assay on U87-MG; 1430 nM in the assay on MDA-MB-231; 580 nM in the assay with MiaPaCa-2; 490 nM in the assay on DU145; 730 nM in the assay with PC3. Further, the IC50 stood at 800 nM in the assay with A549 and 520 nM in the assay with SK-Mel-28.

As usually defined, the IC50 is the concentration needed to halve the response being measured.
